The subject of one assay is PgDPP III. Kind of assay: Substrate specificity for PgDPP III, dipeptidyl-2NA substrates. Type of assay: biochemical, Porphyromonas gingivalis. Conditions: for substrate preference / hydrolysis rate (in words): dipeptidyl-2NA substrates; for Relative hydrolysis rate: standard colorimetric assay, 37°C, pH 8.0, 50 mM Tris-HCl (I = 0.01), 100 μM CoCl2, Arg-Arg-2NA listed as 100. The procedure:
DPP III activity was determined by a standard colorimetric assay described previously using Arg-Arg-2-naphthylamide (Arg2-2NA) and Arg-Arg-7-amido-4-methylcoumarin (Arg2-AMC) as substrates, at 37°C and pH 8.0, in 50 mM Tris-HCl buffer (I = 0.01) containing 100 μM CoCl2. […] The kinetic parameters were determined from the initial reaction rates, using a nonlinear regression program (GraphPad Prism version 5.04; GraphPad, La Jolla, CA, USA).
Cloning, expression, and purification of the recombinant proteins was performed as described in the Materials and methods section. Enzyme activity was assayed using a set of synthetic dipeptide-2-naphthylamide substrates as described previously. Full-length PgDPP III and the DPP III fragment (a. acids 1–679) were purified to apparent homogeneity according to SDS-PAGE, with estimated molecular weights of 102000 and 78000, respectively, which was in agreement with their predicted molecular masses (Fig 1A). We cloned and attempted to express three C-terminal fragments of different sizes. Only one (amino acids 648–886) was detected on SDS-PAGE. However, it could not be purified as all expressed protein was in insoluble inclusion bodies. This problem was not solved by attempts to yield soluble protein by refolding from inclusion bodies.

The test system of assay [1] is Full length PgDPP III (1–886 aa). The assay is classed as biochemical, Porphyromonas gingivalis. Conditions: for kcat/Km: full length, pH 8.0, 100 μM CoCl2, enzyme 0.5–1 nM; for kcat/Km of PgDPP III, fold lower than human DPP III: human DPP III data ref 70.
The test system of assay [2] is DPP III fragment (1–679 aa). Kind of assay: Kinetic analysis / specific activity of the DPP III fragment. Conditions: for kcat/Km: DPP III fragment, pH 8.0, 100 μM CoCl2, enzyme 40–100 nM; for kcat/Km / Km / kcat: 26°C; for Km / kcat: fluorimetric, pH 8.0 Tris-HCl (ionic strength 0.01M), 100 μM CoCl2, enzyme 40–100 nM, mean of at least two independent experiments ± SD. Type of assay: biochemical, Porphyromonas gingivalis.

Assay [3] has as its target E433A variant of PgDPP III (Porphyromonas gingivalis, UniProt Q7MX92, E433A). In words: biochemical. The assay is classed as binding.
Assay [4] concerns putative DPP III from P. gingivalis strain ATCC 33277. To be noted: recombinant protein of gene PGN_1645; cited from earlier work. The source says: (§1) Dipeptidyl peptidases of P. gingivalis have been the subject of extensive research because these exopeptidases liberate dipeptides from the amino-end of their natural substrates, and P. gingivalis is known to utilize dipeptides preferentially, instead of free amino acids, as the source of energy. Until now, beside DPP IV, which is a proven virulence factor, three other DPPs were reported: DPP5, DPP7 and DPP11 [67–69]. They are all serine peptidases, localized in the periplasm, but differ in their substrate specificity.

In assay [5] the test system is gingipain null-mutant KDP136 cells. To be noted: compared to wild-type P. gingivalis ATCC 33277; cited from earlier work.
Excerpt: as §1

[6] abbreviates: Arg2-2NA, yeast enzyme data ref 70.
[7] abbreviates: fluorimetric, 26°C, pH 8.0 Tris-HCl (ionic strength 0.01M), 100 μM CoCl2, enzyme 0.5–1 nM, mean of at least two independent experiments ± SD.
Setting [8] is: DPP III fragment vs full length PgDPP III.

Where a SMILES comes first, the peptide text is derived from it. Where no end group is shown, it is not given here. The star is where a group is joined. AMC = Cc1cc(=O)oc2cc(N*)ccc12; βNA = c1ccc2cc(N*)ccc2c1

E433A variant of PgDPP III, sequence (Q7MX92 whole entry E433A): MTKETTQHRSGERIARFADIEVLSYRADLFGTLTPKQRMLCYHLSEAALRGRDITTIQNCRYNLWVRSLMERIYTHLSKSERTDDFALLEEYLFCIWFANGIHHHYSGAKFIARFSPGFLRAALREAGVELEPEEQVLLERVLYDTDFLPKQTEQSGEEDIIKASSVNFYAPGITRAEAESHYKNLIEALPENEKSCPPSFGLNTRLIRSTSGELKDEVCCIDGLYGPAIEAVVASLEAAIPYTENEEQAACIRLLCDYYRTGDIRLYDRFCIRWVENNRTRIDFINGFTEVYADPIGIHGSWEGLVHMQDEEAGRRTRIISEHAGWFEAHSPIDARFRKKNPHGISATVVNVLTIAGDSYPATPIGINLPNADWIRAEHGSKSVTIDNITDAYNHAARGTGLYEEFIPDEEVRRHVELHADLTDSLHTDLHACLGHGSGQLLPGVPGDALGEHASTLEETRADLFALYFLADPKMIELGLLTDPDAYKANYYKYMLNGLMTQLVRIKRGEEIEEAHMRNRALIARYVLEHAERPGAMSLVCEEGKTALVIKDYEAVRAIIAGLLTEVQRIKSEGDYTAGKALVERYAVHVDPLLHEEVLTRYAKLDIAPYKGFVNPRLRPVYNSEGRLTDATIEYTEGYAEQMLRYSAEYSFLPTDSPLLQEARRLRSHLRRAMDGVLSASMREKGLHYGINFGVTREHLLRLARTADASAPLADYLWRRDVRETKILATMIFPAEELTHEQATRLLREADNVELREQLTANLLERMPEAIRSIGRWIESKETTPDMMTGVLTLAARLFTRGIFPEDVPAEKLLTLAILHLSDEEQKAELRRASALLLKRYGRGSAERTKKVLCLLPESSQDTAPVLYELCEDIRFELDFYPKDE

As to `N=C(N)NCCC[C@H](NC(=O)[C@@H](N)CCCNC(=N)N)C(=O)Nc1ccc2ccccc2c1` [Arg-Arg-2NA, Arg-Arg-2-naphthylamide] (H-Arg-Arg-βNA), the “substrate preference / hydrolysis rate (in words)” value in the assay with PgDPP III (listed as Arg2-2NA) is reported as “preference for Arg2-2NA”. In addition, the “substrate preference / hydrolysis rate (in words)” value with PgDPP III (listed as diarginyl-2NA) is on record as “PgDPP III prefers diarginyl-2NA”. Besides, the Relative hydrolysis rate with PgDPP III came to 100%. In assay [1] (setting [6]), the “Km decrease, PgDPP III vs yeast counterpart” value was found to be 12 fold; the “kcat increase, PgDPP III vs yeast counterpart” value came out at 4.2 fold; the “kcat/Km of full-length PgDPP III, fold higher than yeast counterpart” value is 50 fold. Also, the “Km and kcat compared to B. thetaiotaomicron DPP III (in words)” value in assay [1] (BtDPP III data ref 24) was “similarities in Km and kcat values”. For the same molecule, in assay [1] (setting [7]), the Km amounted to 0.97 ± 0.16 µM and the kcat turned out to be 0.75 ± 0.13 s⁻¹. In assay [1] (full length PgDPP III), the “catalytic efficiency, Arg-Arg-2NA fold higher than Arg-Arg-AMC” value stood at 6.8 fold and the “kcat, Arg-Arg-2NA fold higher than Arg-Arg-AMC” value was 2.6 fold. Also, in assay [1] (26°C), the kcat/Km was 773200 M⁻¹ s⁻¹. In assay [1], the “kcat/Km of PgDPP III, fold lower than human DPP III” value came out at 12 fold. Moreover, in assay [2] (setting [8]), the “Km increase when C-terminal domain was removed” value is on record as 4 fold and the “reduction in catalytic efficiency when C-terminal domain was removed” value was 1050 fold. For the same molecule, in assay [2], the kcat/Km is 732 M⁻¹ s⁻¹, the Km is 4.37 ± 0.42 µM and the kcat was determined as 0.0032 ± 0.0005 s⁻¹. The “specific activity of DPP III fragment, fold lower than full-length protein” value in assay [2] (hydrolysis of Arg2-2NA, vs full-length PgDPP III) was found to be 250 fold.

Turning to VVYPW [tynorphin], in assay [3], binding was put at a Kd of 7.3 ± 0.83 µM.

Molecule `CC[C@H](C)[C@H](N)C(=O)N[C@H](C(=O)N[C@@H](Cc1ccc(O)cc1)C(=O)N1CCC[C@H]1C(=O)N[C@@H](Cc1c[nH]c2ccccc12)C(=O)O)C(C)C` [IVYPW] registered a Kd in assay [3] of 9.35 ± 0.73 µM.

In turn, `NC(N)=NCCCC(NC(=O)c1ccccc1)C(=O)Nc1ccc2ccccc2c1` (stereo not shown) [BANA] had a Relative hydrolysis rate in the assay with PgDPP III of 0%.

As for `Cc1cc(=O)oc2cc(NC(=O)[C@H](CCCNC(=N)N)NC(=O)[C@@H](N)CCCNC(=N)N)ccc12` [Arg-Arg-AMC, Arg-Arg-7-amido-4-methylcoumarin] (H-Arg-Arg-{AMC}), in assay [4], the “activity among dipeptidyl-AMC substrates (in words)” value is “highest activity”. Also, the “hydrolysis by mutant cells (in words)” value in assay [5] is on record as “defects in Arg-Arg-AMC hydrolysis”. Moreover, in assay [1] (setting [7]), the kcat stood at 0.29 ± 0.11 s⁻¹. Also, the kcat/Km in assay [1] (26°C) was found to be 113280 M⁻¹ s⁻¹. Besides, the “kcat/Km of PgDPP III, fold lower than human DPP III” value in assay [1] amounted to 26 fold. Besides, in assay [2] (setting [8]), the “Km increase when C-terminal domain was removed” value was found to be 4 fold, the “kcat reduction when C-terminal domain was removed” value amounted to 120 fold and the “reduction in catalytic efficiency when C-terminal domain was removed” value turned out to be 470 fold. Moreover, in assay [2], the kcat/Km came to 241 M⁻¹ s⁻¹, the Km was determined as 9.97 ± 0.44 µM and the kcat came to 0.0024 ± 0.0014 s⁻¹.

In the case of `CC[C@H](C)[C@H](NC(=O)[C@H](Cc1ccc(O)cc1)NC(=O)[C@@H](NC(=O)[C@H](CCCNC(=N)N)NC(=O)[C@@H](N)CC(=O)O)C(C)C)C(=O)N[C@@H](Cc1cnc[nH]1)C(=O)N1CCC[C@H]1C(=O)N[C@@H](Cc1ccccc1)C(=O)O` [angiotensin II], in assay [3], the Kd was determined as 0.9 ± 0.12 µM.

The values above are taken from PMC5708649, “A novel Porphyromonas gingivalis enzyme: An atypical dipeptidyl peptidase III with an ARM repeat domain” (PLoS ONE, 2017).
